# In ChEMBL document CHEMBL1201862, “PubChem BioAssay data set” (2004):
#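 1) Cells in 96-well plates. 2) Compound, 48 h, 5 concentrations. 3) Linear interpolation between surrounding doses. 4) Unreached endpoint = highest concentration. GI50 = concentration required for 50% inhibition of growth.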 Active and inactive are the calls of the source. Cut-off read from the data, not from the text of the source: active = GI50 up to about 1.1 µM and inactive = higher.
# Tests used:
# Experiment in all cases: DTP human tumour cell line panel, 48 h
# [1] = test system: 786-0
# [2] = test system: A498
# [3] = test system: CAKI-1
# [4] = test system: COLO 205
# [5] = test system: HCT-15
# [6] = test system: HOP-62
# [7] = test system: K562
# [8] = test system: MCF7
# [9] = test system: MOLT-4
# [10] = test system: NCI-H226
# [11] = test system: NCI-H460
# [12] = test system: OVCAR-3
# [13] = test system: OVCAR-8
# [14] = test system: PC-3
# [15] = test system: RPMI-8226
# [16] = test system: SK-MEL-28
# [17] = test system: T47D
# [18] = test system: TK-10
# [19] = test system: UACC-257
# [20] = test system: SK-MEL-2
SMILES,GI50 [1],GI50 [2],GI50 [3],GI50 [4],GI50 [5],GI50 [6],GI50 [7],GI50 [8],GI50 [9],GI50 [10],GI50 [11],GI50 [12],GI50 [13],GI50 [14],GI50 [15],GI50 [16],GI50 [17],GI50 [18],GI50 [19],GI50 [20]
CSc1nc(NC2CCCC2)c2cc[nH]c2n1,95.1 µM (inactive),22.6 µM (inactive),> 100 µM (inactive),48.4 µM (inactive),54.2 µM,> 100 µM (inactive),32.9 µM (inactive),57.3 µM (inactive),42.4 µM (inactive),87.5 µM (inactive),> 100 µM (inactive),54.1 µM (inactive),89.1 µM (inactive),43.5 µM (inactive),33.6 µM (inactive),92 µM (inactive),61.1 µM (inactive),72.6 µM (inactive),55.5 µM (inactive),
CC1OC(OC2C(OC(=O)[C@]34CCC(C)(C)C[C@H]3C3=CC[C@@H]5[C@@]6(C)CC[C@H](OC7OC(C(=O)O)C(O)C(O)C7O)C(C)(C)[C@@H]6CC[C@@]5(C)[C@]3(C)C[C@H]4O)OCC(O)C2O)C(O)C(O)C1OC1OCC(OC2OCC(O)C(O)C2O)C(O)C1O (stereo partly drawn),11.1 µM (inactive),1.48 µM (inactive),9.73 µM (inactive),1.89 µM (inactive),14.7 µM,13.2 µM (inactive),11.4 µM (inactive),5.07 µM (inactive),14.8 µM (inactive),6.92 µM (inactive),16.4 µM (inactive),15.9 µM (inactive),15.9 µM (inactive),6.46 µM (inactive),10.7 µM (inactive),3.44 µM (inactive),7.16 µM (inactive),,8.63 µM (inactive),2.96 µM (inactive)
NC(=O)NC(=O)Nc1ccc(Br)cc1,20.5 µM (inactive),9.79 µM (inactive),> 9.38 µM (inactive),11.3 µM (inactive),28 µM,> 15.8 µM (inactive),3.3 µM (inactive),5.45 µM (inactive),3.78 µM (inactive),21.5 µM (inactive),> 8.61 µM (inactive),,> 13.7 µM (inactive),23.9 µM (inactive),10.3 µM (inactive),6.14 µM (inactive),6.03 µM (inactive),> 35.9 µM (inactive),> 27.1 µM (inactive),13.2 µM (inactive)
CSc1c(C#N)c2n(c3ccccc3[n+]2C)c2ncccc12,17.7 µM (inactive),25.8 µM (inactive),21 µM (inactive),13.8 µM (inactive),21.5 µM,23.4 µM (inactive),37.9 µM (inactive),15 µM (inactive),92.5 µM (inactive),16.2 µM (inactive),15.7 µM (inactive),22.2 µM (inactive),22.3 µM (inactive),19.1 µM (inactive),25.4 µM (inactive),21.4 µM (inactive),25.8 µM (inactive),,,20.1 µM (inactive)
CC(C)(C)OC/C=C(/CO)[C@@H]1C=C[C@H](O)C1,> 100 µM (inactive),> 100 µM (inactive),> 100 µM (inactive),> 100 µM (inactive),> 100 µM,> 100 µM (inactive),> 100 µM (inactive),> 100 µM (inactive),> 100 µM (inactive),> 100 µM (inactive),> 100 µM (inactive),> 100 µM (inactive),,> 100 µM (inactive),> 100 µM (inactive),> 100 µM (inactive),> 100 µM (inactive),,> 100 µM (inactive),> 100 µM (inactive)
COC(=O)c1ccc2c(c1)CC1(C2)Cc2cc3c(cc2C1=O)CCC3 (stereo not drawn),53 µM (inactive),64.3 µM (inactive),14.6 µM (inactive),14.8 µM (inactive),34.9 µM,46.5 µM (inactive),17.5 µM (inactive),20.9 µM (inactive),10.9 µM (inactive),,37.2 µM (inactive),26.7 µM (inactive),31.6 µM (inactive),39.4 µM (inactive),13.2 µM (inactive),46.1 µM (inactive),42.5 µM (inactive),54.1 µM (inactive),18.3 µM (inactive),38.8 µM (inactive)
CC(C)(Cl)C(Br)CCC(C)(Cl)C(Br)CBr (stereo not drawn),24.5 µM (inactive),22.5 µM (inactive),,18.5 µM (inactive),24.6 µM,24.9 µM (inactive),22.5 µM (inactive),17.6 µM (inactive),41.2 µM (inactive),25.4 µM (inactive),20 µM (inactive),25.1 µM (inactive),> 100 µM (inactive),27.2 µM (inactive),18.1 µM (inactive),29.1 µM (inactive),30.5 µM (inactive),35.4 µM (inactive),19.6 µM (inactive),18.1 µM (inactive)
O=C(Nc1ccc(Cl)cc1)C(=O)C1=C(O)c2ccccc2OC1,> 100 µM (inactive),> 100 µM (inactive),> 100 µM (inactive),> 100 µM (inactive),> 100 µM,,> 100 µM (inactive),> 100 µM (inactive),> 100 µM (inactive),> 100 µM (inactive),> 100 µM (inactive),> 100 µM (inactive),> 100 µM (inactive),> 100 µM (inactive),> 100 µM (inactive),> 100 µM (inactive),> 100 µM (inactive),> 100 µM (inactive),> 100 µM (inactive),> 100 µM (inactive)
COc1cc(S(=O)(=O)Nc2ccc(-c3csc(N4C(=O)C(C)SC4c4ccccc4O)n3)cc2)ccc1Cl (stereo not drawn),35.1 µM (inactive),> 100 µM (inactive),85.9 µM (inactive),25.2 µM (inactive),36.9 µM,82.6 µM (inactive),32.8 µM (inactive),35.2 µM (inactive),27.1 µM (inactive),28.6 µM (inactive),,69.5 µM (inactive),40.9 µM (inactive),29.9 µM (inactive),32.1 µM (inactive),16.1 µM (inactive),13.3 µM (inactive),,,42 µM (inactive)
CC1C(c2ccccc2)O[B-](F)(c2ccccc2)[NH+]1C (stereo not drawn),> 100 µM (inactive),> 100 µM (inactive),,> 100 µM (inactive),> 100 µM,> 100 µM (inactive),> 100 µM (inactive),> 100 µM (inactive),> 100 µM (inactive),> 100 µM (inactive),> 100 µM (inactive),> 100 µM (inactive),> 100 µM (inactive),> 100 µM (inactive),> 100 µM (inactive),> 100 µM (inactive),> 100 µM (inactive),> 100 µM (inactive),> 100 µM (inactive),
O=C1Cc2c([nH]c3ccc(Br)cc23)-c2cc(Br)ccc2N1,> 100 µM (inactive),> 100 µM (inactive),> 100 µM (inactive),> 100 µM (inactive),> 100 µM,,> 100 µM (inactive),> 100 µM (inactive),86.3 µM (inactive),> 100 µM (inactive),> 100 µM (inactive),,> 100 µM (inactive),> 100 µM (inactive),> 100 µM (inactive),> 100 µM (inactive),> 100 µM (inactive),> 100 µM (inactive),> 100 µM (inactive),> 100 µM (inactive)
